Literature values as cited in patent US6399104B1, “Pharmaceutical compositions” (AstraZeneca UK Limited, priority 1997, dated 2002).

Settings: as disclosed in U.S. Pat. No. 5,319,097

COc1cc(C(=O)NS(=O)(=O)c2ccccc2C)ccc1Cc1cn(C)c2ccc(NC(=O)OC3CCCC3)cc12 [Form A, N-[4-[5-(cyclopentyloxycarbonyl)amino-1-methylindol-3-ylmethyl]-3-methoxybenzoyl]-2-methylbenzene]
bioavailability: good bioavailability
